Data: the supplement of paper PMC10949913

Columns and labels:
Test in all cases: area under concentration-response curve (viability) (AUC (a.u.)); higher = less active
Settings in all cases: 48 h
NCI-H295R = tested on: NCI-H295R
Summary of the method: (§1)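 Three adrenocortical carcinoma cell lines were seeded at 500–1,000 cells/well in 5 µL medium in 1,536-well plates. 23 nL of each MIPE 5.0 library compound was added at 11 concentrations. After 48 h (per the protocol name), CellTiter-Glo was added for 15 minutes at room temperature and luminescence was read. Signals were normalised per plate to vehicle and empty-well controls. AC50 and area under the curve came from fitted concentration-response curves, keeping only inhibitory or non-responding curve classes.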

CU-ACC2 = tested on: CU-ACC2
Summary of the method: as §1

CU-ACC1 = tested on: CU-ACC1
Summary of the method: as §1

Compound | area under concentration-response curve (NCI-H295R) | area under concentration-response curve (CU-ACC2) | area under concentration-response curve (CU-ACC1)
CN1CCN(C(=O)c2ccc(-c3ccc4c(C=O)c(O)ccc4c3)s2)CC1 | 556 | 612 | 499
NC[C@H]1O[C@H](O[C@H]2[C@H](O)[C@@H](O[C@H]3O[C@H](CO)[C@@H](O)[C@H](N)[C@H]3O)[C@H](N)C[C@@H]2N)[C@H](N)C[C@@H]1O | 535 | 579 | 486
O=C1NC(=O)/C(=C/c2ccc3c(c2)OC(F)(F)O3)S1 | 537 | 599 | 512
CN(C)N(C)C(=O)[C@@]1(Cc2ccccc2)CCCN(C(=O)[C@@H](Cc2c[nH]c3ccccc23)NC(=O)C(C)(C)N)C1 | 514 | 525 | 522
CC(=O)O[C@H]1C[C@@H]2CC[C@@H]3[C@H](CC[C@@]4(C)[C@H]3C[C@H]([N+]3(C)CCCCC3)[C@@H]4OC(C)=O)[C@@]2(C)C[C@@H]1[N+]1(C)CCCCC1 | 505 | 584 | 501
CC(C)(C)C(=O)CN1C(=O)[C@H](NC(=O)Nc2cccc(C(=O)O)c2)CN(C2CCCCC2)c2ccccc21 | 559 | 612 | 518
CNc1nc(Nc2cnn([C@H]3CCN(C4COC4)C[C@@H]3F)c2Cl)ncc1C(F)(F)F | 566 | 604 | 562
CCN(CC)CCN1C(=O)\C(=N/C2=CC=CC=C12)CC3=CC=C(OC)C=C3 | 501 | 526 | 472
CN(C)C(=O)COC(=O)Cc1ccc(OC(=O)c2ccc(NC(=N)N)cc2)cc1 | 541 | 564 | 464
CO[C@@H]1[C@@H](OC(N)=O)[C@@H](O)[C@H](OC2=CC=C3\C(=C(NC(=O)C4=CC=C([O-])C(=C4)CC=C(C)C)/C(=O)OC3=C2C)O)OC1(C)C | 539 | 531 | 535
CN(CC(=O)N(Cc1ccc(C2CCCCC2)cc1)c1ccc(C(=O)O)c(O)c1)[S+](=O)([O-])c1c(F)c(F)c(F)c(F)c1F | 536 | 558 | 486
FC1=CC=C(C=C1)N2/C=C\C=C(C(=O)NC3=CC=C(OC4=C5C=C[NH]C5=NC=C4)C(=C3)F)/C2=O | 535 | 616 | 588
NC(=O)C1CCCc2c1[nH]c1ccc(Cl)cc21 (stereo not drawn) | 545 | 597 | 496
Cc1ccc(CN2CCNCC2)cc1NC(=O)CNc1ccc(F)c(F)c1 | 596 | 635 | 531
C[C@H](O)[C@H]1[C@@H]2[C@H](C)C(=C(\N2C1=O)C(O)=O)/S[C@@H]3CN[C@H](CN[S+](N)([O-])=O)C3 | 578 | 643 | 516
Nc1ncnc2nc(-c3ccc(N4CCOCC4)nc3)cc(-c3cccc(Br)c3)c12 | 459 | 525 | 492
O=C1\C=C/C=C2/[C@H]3CNC[C@H](C3)CN12 | 576 | 663 | 593
C[C@@H]1[C@H](O)[C@@H](C)/C=C/C=C/C=C/C=C/C=C/C=C/C=C/[C@H](O[C@@H]2O[C@H](C)[C@@H](O)[C@H](N)[C@@H]2O)C[C@@H]2O[C@](O)(C[C@@H](O)C[C@@H](O)[C@H](O)CC[C@@H](O)C[C@@H](O)CC(=O)O[C@H]1C)C[C@H](O)[C@H]2C(=O)O | 595 | 633 | 550
CO[C@H]1/C=C/O[C@@]2(C)Oc3c(C)c(O)c4c(O)c(c(/C=N/N5CCN(C)CC5)c(O)c4c3C2=O)NC(=O)/C(C)=C\C=C\[C@H](C)[C@H](O)[C@@H](C)[C@@H](O)[C@@H](C)[C@H](OC(C)=O)[C@@H]1C | 560 | 624 | 550
COc1ccc(CC2SC(=O)NC2=O)cc1C(=O)NCc1ccc(C(F)(F)F)cc1 (stereo not drawn) | 585 | 645 | 570
CC(C)NCC(O)COc1ccc(CCOCC2CC2)cc1 (stereo not drawn) | 536 | 560 | 493
